Patent US10314809B2, “Application of derivative of clostridium ghonii” (SHANDONG XINCHUANG BIOTECHNOLOGY CO., LTD., priority 2014, dated 2019)

System: non-small cell lung carcinoma A549 cells
Experiment: Example 2: in-vivo test of spores combined with chemotherapy medicines in A549 tumor-bearing nude mice
Set-up: species or system Balb/c-nu/nu nude mice
Experimental: The non-small cell lung carcinoma A549 cells were injected into the subcutaneous positions at femoral lateral parts of right backs of female Balb/c-nu/nu nude mice (5 weeks old, 20 g) by subcutaneous injection. The in-vivo test was performed when the tumor volume was 300 mm^3.
Control group: n=15, and 0.2 ml of PBS buffer was intravenously injected to the tails;
Docetaxel group: n=15, Docetaxel was intravenously injected to the tails on the 4th day and 11th day, the dose was 20 mg/(kg·body weight), and the application dose of Docetaxel was the optimal application dose.
MW-DCG-HNCv-18 spore group: n=15, spores were intravenously injected to the tails, and the dose was 3×10^8/(kg·body weight).
(§1) MW-DCG-HNCv-18 spore+Cetuximab group: n=15, MW-DCG-HNCv-18 spores were intravenously injected to the tails on the first day, and the dose was 3×10^8/(kg·body weight); Cetuximab was intravenously injected to the tails on the 4th day and 11th day, the dose was 70 mg/(kg·body weight), and the application dose of Cetuximab was the optimal application dose.
as §1, with “weight); Adriacin” for “weight); Cetuximab”, “was 10” for “was 70”, “of Adriacin” for “of Cetuximab”
MW-DCG-HNCv-18 spore+Docetaxel group: n=15, MW-DCG-HNCv-18 spores were intravenously injected to the tails on the first day, and the dose was 3×10^8/(kg·body weight); Docetaxel was intravenously injected to the tails on the 4th day and 11th day, and the dose was 20 mg/(kg·body weight).
C. novyi-NT spore+Docetaxel group: n=15, C. novyi-NT spores were intravenously injected to the tails on the first day, and the dose was 3×10^8/(kg·body weight);
Docetaxel was intravenously injected to the tails on the 4th day and 11th day, and the dose was 20 mg/(kg·body weight).
The major diameter (a) and transverse diameter (b) of the transplanted tumors of the nude mice were measured with a vernier caliper, 3 to 4 times a week, the tumor volume of each group was calculated, and the anti-tumor effects of the strains were observed dynamically. At the same time, the body weight, feeding, drinking, mental state, behavior, fur color, excretion and death situations of the tumor-bearing mice were observed and recorded.
The tumor volume (V=½×a×b^2) was calculated according to the measured major diameter and transverse diameter data of the tumors, the curve was drawn and the tumors were observed dynamically. […]
The overall survival time of the tumor-bearing mice: the nude mice in each group after processing were fed until natural death, and the survival time was calculated.

[1] = spores 3×10^8/(kg·body weight) i.v. day 1, drug i.v. 4th and 11th day (Docetaxel 20, Cetuximab 70, Adriacin 10 mg/kg)

CC(=O)O[C@@]12CO[C@@H]1C[C@H](O)[C@@]1(C)C(=O)[C@H](O)C3=C(C)[C@@H](OC(=O)[C@H](O)[C@@H](NC(=O)OC(C)(C)C)c4ccccc4)C[C@@](O)([C@@H](OC(=O)c4ccccc4)[C@H]21)C3(C)C [Docetaxel]
Cure rate (animals with tumor completely removed/total, spores 3×10^8/kg day 1, drug i.v. 4th and 11th day): 0% | Necrosis rate [1]: 22.2% | Tumor inhibition rate [1]: 55.9% | mean survival days (spores 3×10^8/kg day 1, drug i.v. 4th and 11th day, fed until natural death): 35.5 days
